Reference: paper PMC4708625 (Free Radical Biology & Medicine, 2016)

Tests used:
[1] = target: T1, Carboxylesterase 1 isoform b (Ces1b) (Homo sapiens, UniProt P23141); experiment: inhibition of Amplex Red to resorufin conversion by recombinant Ces1b (fluorescence); format: biochemical
T1 construct: gene CES1
T1 sequence (P23141 18-567): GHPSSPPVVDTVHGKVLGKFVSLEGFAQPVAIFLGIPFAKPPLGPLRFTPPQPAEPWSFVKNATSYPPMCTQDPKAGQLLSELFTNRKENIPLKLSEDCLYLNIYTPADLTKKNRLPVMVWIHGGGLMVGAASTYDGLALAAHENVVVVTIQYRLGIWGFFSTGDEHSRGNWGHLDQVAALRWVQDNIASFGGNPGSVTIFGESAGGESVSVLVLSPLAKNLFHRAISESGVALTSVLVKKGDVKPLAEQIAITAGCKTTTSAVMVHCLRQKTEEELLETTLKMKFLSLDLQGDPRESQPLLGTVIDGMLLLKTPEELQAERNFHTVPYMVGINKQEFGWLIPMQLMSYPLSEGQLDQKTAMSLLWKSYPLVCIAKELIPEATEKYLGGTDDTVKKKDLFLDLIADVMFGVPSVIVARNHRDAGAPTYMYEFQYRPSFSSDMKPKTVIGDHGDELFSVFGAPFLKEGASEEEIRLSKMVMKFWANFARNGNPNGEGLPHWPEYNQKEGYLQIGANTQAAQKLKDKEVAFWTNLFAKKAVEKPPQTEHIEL

[2] = target: T1, Carboxylesterase 1 isoform b (Ces1b); experiment: biochemical; settings: read-out: % inhibition at 100 μM
[3] = target: T1, Carboxylesterase 1 isoform b (Ces1b); experiment: dose response of Amplex Red to resorufin conversion by recombinant Ces1b (fluorescence); format: biochemical
purified protein = substrate: CC(=O)N1c2ccc(O)cc2Oc2cc(O)ccc21; experiment: purified protein; settings: docking: carbonyl carbon near Ser221, carbonyl oxygen in oxyanion hole of Gly142 and Gly143

Work on `O=[N+]([O-])c1ccc(OP(=O)(O)Oc2ccc([N+](=O)[O-])cc2)cc1` [BNPP, bis(4-nitrophenyl)phosphate] yielded an IC50 [1] of about 150 nM.

`CN(C)C(=O)C(CCN1CCC(O)(c2ccc(Cl)cc2)CC1)(c1ccccc1)c1ccccc1` [LPM, Loperamide] gave an inhibition at 100 µM [2] of about 50%.

Molecule `O=S(=O)(F)Cc1ccccc1` [PMSF, Phenylmethyl sulfonyl fluoride] has an IC50 [3] of about 5000 nM.

B1: Carboxylesterase 1 isoform b (Ces1b) (Homo sapiens) (protein)
chain: T1 sequence (P23141 18-567)
With B1 the Km (purified protein) was 55 ± 12 µM.
